For orientation: IC50 means the concentration at which inhibition is half-maximal.

In patent US20240199546A1, “INHIBITORS OF SOLUTE CARRIER FAMILY 6A MEMBER 19 (SLC6A19) AND METHODS OF USE THEREOF” (Maze Therapeutics, Inc., priority 2022, published 2024) one finds IC50 data, which are given here for 25 molecules.

For the experiment, the target named is T1, human SLC6A19 and TMEM27 (Homo sapiens, UniProt Q695T7).
T1 construct: expressed in transfected cells
T1 sequence (Q695T7 1-634): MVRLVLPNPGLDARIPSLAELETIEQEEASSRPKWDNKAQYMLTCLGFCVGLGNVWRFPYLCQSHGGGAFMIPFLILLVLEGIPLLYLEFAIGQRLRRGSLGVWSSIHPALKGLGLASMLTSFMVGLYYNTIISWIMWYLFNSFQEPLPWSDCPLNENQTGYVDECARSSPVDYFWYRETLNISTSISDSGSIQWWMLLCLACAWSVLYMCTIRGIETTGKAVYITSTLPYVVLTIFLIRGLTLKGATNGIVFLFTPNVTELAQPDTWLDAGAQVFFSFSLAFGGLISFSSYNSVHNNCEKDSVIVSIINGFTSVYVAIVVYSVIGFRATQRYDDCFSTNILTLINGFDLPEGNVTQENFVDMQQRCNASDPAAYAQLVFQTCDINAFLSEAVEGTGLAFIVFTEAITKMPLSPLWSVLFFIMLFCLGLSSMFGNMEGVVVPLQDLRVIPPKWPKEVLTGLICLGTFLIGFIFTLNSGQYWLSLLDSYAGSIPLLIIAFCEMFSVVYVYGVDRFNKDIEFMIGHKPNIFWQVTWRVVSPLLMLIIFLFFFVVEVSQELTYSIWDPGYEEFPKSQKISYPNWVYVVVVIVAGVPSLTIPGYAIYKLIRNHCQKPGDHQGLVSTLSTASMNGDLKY
T1 sequence (Q9HBJ8 15-222 partner): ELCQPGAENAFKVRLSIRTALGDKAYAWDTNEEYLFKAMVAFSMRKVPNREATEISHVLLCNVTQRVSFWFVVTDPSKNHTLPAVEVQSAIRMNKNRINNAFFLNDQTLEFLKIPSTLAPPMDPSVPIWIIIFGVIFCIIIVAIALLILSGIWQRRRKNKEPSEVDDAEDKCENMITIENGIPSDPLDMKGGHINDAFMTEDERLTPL
In words: Radiolabelled (3H) leucine uptake in CHO cells with doxycycline-inducible expression of human SLC6A19 and TMEM27 (Example B-1). The format is cell-based. Conditions: CHO cells with doxycycline-inducible expression of human SLC6A19 and TMEM27, read-out: SLC6A19_Radioligand Uptake Assay IC50. Put shortly: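 CHO cells were induced with doxycycline for 18 h at 37 °C, washed in HBSS, then exposed to compounds for 1 h: 8-point, 3-fold dilutions in duplicate, 0.5% DMSO final. Uptake measured by scintillation counting after 2 h shaking. Activity normalized with positive control as 0% and DMSO as 100%.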
`COCC1(C(=O)NCc2cc3cc(Cl)c(OCc4cscn4)cc3[nH]2)CC1` [Compound 279, N-((5-chloro-6-(thiazol-4-ylmethoxy)-1H-indol-2-yl)methyl)-1-(methoxymethyl)cyclopropane-1-carboxamide]: the IC50 stood at 0.383 µM.
The value for `Cc1cc(COc2cc3[nH]c(CNC(=O)CC(F)(F)F)cc3cc2Cl)on1` [Compound 564, N-((5-chloro-6-((3-methylisoxazol-5-yl)methoxy)-1H-indol-2-yl)methyl)-3,3,3-trifluoropropanamide] was 0.174 µM.
In the case of `Cc1cc(COc2cc(F)c3cc(CNC(=O)C4(C)CC4)[nH]c3c2)no1` [Compound 340, N-((4-fluoro-6-((5-methylisoxazol-3-yl)methoxy)-1H-indol-2-yl)methyl)-1-methylcyclopropane-1-carboxamide], the half-inhibitory concentration (IC50) worked out at 0.277 µM.
The value for `C[C@H]1CCN(C(=O)NCc2cc3cc(F)c(OCc4ccon4)cc3[nH]2)C1` [Compound 382, (S)-N-((5-fluoro-6-(isoxazol-3-ylmethoxy)-1H-indol-2-yl)methyl)-3-methylpyrrolidine-1-carboxamide] was 0.42 µM; that for `Cc1cc(COc2cc3[nH]c(CNC(=O)C4(F)CC4)cc3cc2Cl)on1` [Compound 571, N-((5-chloro-6-((3-methylisoxazol-5-yl)methoxy)-1H-indol-2-yl)methyl)-1-fluorocyclopropane-1-carboxamide] was 0.161 µM.
Under `CC1(C(=O)NCc2cc3cc(Cl)c(CCn4cnnn4)cc3[nH]2)CC1` [Compound 585, N-((6-(2-(1H-tetrazol-1-yl)ethyl)-5-chloro-1H-indol-2-yl)methyl)-1-methylcyclopropane-1-carboxamide] stands > 9.23 µM; under `CO[C@H]1C[C@@H](Oc2cc3[nH]c(CNC(C)=O)cc3cc2Cl)C1` [Compound 463, N-((5-chloro-6-((cis)-3-methoxycyclobutoxy)-1H-indol-2-yl)methyl)acetamide], > 8.73 µM; under `CC1(C(=O)NCc2cc3cc(Cl)c(CCn4nccn4)cc3[nH]2)CC1` [Compound 586, N-((6-(2-(2H-1,2,3-triazol-2-yl)ethyl)-5-chloro-1H-indol-2-yl)methyl)-1-methylcyclopropane-1-carboxamide], 0.176 µM.
Under `CC1(C(=O)NCc2cc3cc(Cl)c(CNc4ccccn4)cc3[nH]2)CC1` [Compound 609, N-((5-chloro-6-((pyridin-2-ylamino)methyl)-1H-indol-2-yl)methyl)-1-methylcyclopropane-1-carboxamide] stands 0.339 µM; under `CC1(C(=O)NCc2cc3cc(OC(F)(F)F)c(CCc4cocn4)cc3[nH]2)CC1` [Compound 514, 1-methyl-N-((6-(2-(oxazol-4-yl)ethyl)-5-(trifluoromethoxy)-1H-indol-2-yl)methyl)cyclopropane-1-carboxamide], 0.408 µM; under `O=C(NCc1cc2cc(F)c(OCc3cscn3)cc2[nH]1)N1CCC1` [Compound 92, N-((5-fluoro-6-(thiazol-4-ylmethoxy)-1H-indol-2-yl)methyl)azetidine-1-carboxamide], 0.214 µM.
As to `Cc1cc(COc2cc3[nH]c(CNC(=O)C(C)(F)F)cc3cc2F)on1` [Compound 441, 2,2-difluoro-N-((5-fluoro-6-((3-methylisoxazol-5-yl)methoxy)-1H-indol-2-yl)methyl)propanamide], the IC50 was found to be 0.0956 µM.
The value for `Cc1cc(COc2cc(F)c3cc(CNC(=O)C4(C)CC4)[nH]c3c2)on1` [Compound 339, N-((4-fluoro-6-((3-methylisoxazol-5-yl)methoxy)-1H-indol-2-yl)methyl)-1-methylcyclopropane-1-carboxamide] was 0.328 µM; that for `CC1(C(=O)NCc2cc3cc(Cl)c(OCc4ccccc4O)cc3[nH]2)CC1` [Compound 203, N-((5-chloro-6-((2-hydroxybenzyl)oxy)-1H-indol-2-yl)methyl)-1-methylcyclopropane-1-carboxamide] was 1.09 µM.
Under `C[C@H]1CCN(C(=O)NCc2cc3cc(F)c(OCc4cscn4)cc3[nH]2)C1` [Compound 388, (S)-N-((5-fluoro-6-(thiazol-4-ylmethoxy)-1H-indol-2-yl)methyl)-3-methylpyrrolidine-1-carboxamide] stands 0.336 µM; under `O=C(NCc1cc2cc(Cl)c(OCc3cscn3)cc2[nH]1)[C@@H]1CCO1` [Compound 315, (S)-N-((5-chloro-6-(thiazol-4-ylmethoxy)-1H-indol-2-yl)methyl)oxetane-2-carboxamide], 0.148 µM.
Under `CCc1cc(COc2ccc3cc(CNC(=O)C4(C)CC4)[nH]c3c2)no1` [Compound 185, N-((6-((5-ethylisoxazol-3-yl)methoxy)-1H-indol-2-yl)methyl)-1-methylcyclopropane-1-carboxamide] stands 1.05 µM.
Take `C[C@@H]1CCCN1C(=O)NCc1cc2cc(F)c(OCc3ccon3)cc2[nH]1` [Compound 383, (R)-N-((5-fluoro-6-(isoxazol-3-ylmethoxy)-1H-indol-2-yl)methyl)-2-methylpyrrolidine-1-carboxamide]: the IC50 was 0.178 µM.
`CC(F)C(=O)NCc1cc2cc(Cl)c(OCc3cscn3)cc2[nH]1` (single isomer, unassigned) [Compound 443, (S or R)-N-((5-chloro-6-(thiazol-4-ylmethoxy)-1H-indol-2-yl)methyl)-2-fluoropropanamide]: the IC50 came to 0.0642 µM.
Under `COCCOc1cc2[nH]c(CNC(=O)C3(C)CC3)cc2cc1Cl` [Compound 333, N-((5-chloro-6-(2-methoxyethoxy)-1H-indol-2-yl)methyl)-1-methylcyclopropane-1-carboxamide] stands 0.206 µM.
Regarding `CC1(C(=O)NCc2cc3cc(Cl)c(OCC4COCCO4)cc3[nH]2)CC1` (racemic) [Compound 396, (S)-N-((6-((1,4-dioxan-2-yl)methoxy)-5-chloro-1H-indol-2-yl)methyl)-1-methylcyclopropane-1-carboxamide and (R)-N-((6-((1,4-dioxan-2-yl)methoxy)-5-chloro-1H-indol-2-yl)methyl)-1-methylcyclopropane-1-carboxamide], the IC50 was determined as 0.644 µM.
Regarding `CC(F)(F)C(=O)NCc1cc2cc(F)c(OCc3cscn3)cc2[nH]1` [Compound 436, 2,2-difluoro-N-((5-fluoro-6-(thiazol-4-ylmethoxy)-1H-indol-2-yl)methyl)propanamide], the IC50 was found to be 0.097 µM.
For the molecule `Cc1cc(COc2cc3[nH]c(CNC(=O)C4(F)CC4)cc3cc2F)on1` [Compound 572, 1-fluoro-N-((5-fluoro-6-((3-methylisoxazol-5-yl)methoxy)-1H-indol-2-yl)methyl)cyclopropane-1-carboxamide], the concentration for half-maximal inhibition (IC50) was 0.113 µM.
As to `Cc1cc(COc2cc3[nH]c(CNC(=O)[C@@H]4CCN4)cc3cc2Cl)on1` [Compound 448, (S)-N-((5-chloro-6-((3-methylisoxazol-5-yl)methoxy)-1H-indol-2-yl)methyl)azetidine-2-carboxamide], the IC50 worked out at 2.75 µM.
The value for `Cc1cc(COc2cc3[nH]c(CNC(=O)[C@@H]4CCC[C@@H]4O)cc3cc2Cl)on1` (racemic) [Compound 573, (1R,2S)-N-((5-chloro-6-((3-methylisoxazol-5-yl)methoxy)-1H-indol-2-yl)methyl)-2-hydroxycyclopentane-1-carboxamide and (1S,2R)-N-((5-chloro-6-((3-methylisoxazol-5-yl)methoxy)-1H-indol-2-yl)methyl)-2-hydroxycyclopentane-1-carboxamide] was 1.39 µM.
